Laboratory results: paper PMC11211441, “Distributable, metabolic PET reporting of tuberculosis” (Nature Communications, 2024)

Experiments:
[1] = test system: mammalian (porcine) trehalase; assay: Trehalase degradation assay; format: in vitro ADME; settings: 0.3 units/mL trehalase, 10 mM substrate
Procedure: The metabolic stabilities of the remaining three analogs, [^18F]FDT, 4-epi-[^18F]FDT and 6-[^18F]FDT were tested. Although, human trehalose-degrading trehalase activity is low and restricted primarily to the brush-border of the kidney where it is thought to be GPI-anchored[28],[32], it can be elevated in some diseases, therefore we also tested degradation of the analogs in vitro using high concentrations of mammalian (porcine) trehalase (0.3 units/mL, 10 mM substrate, Fig. S5). […]
Figure S5. Trehalase Assays.
Substrates were prepared to a final concentration of 10 mM in 0.05 M citric acid, pH 5.7 including trehalase stock solution (0.3 units/mL). The reaction mixture was incubated at 37 °C for 60 minutes, and then quenched with an equal volume of 0.1 M Tris, pH 7.5. Released glucose was measured with glucose assay kit (see Methods).

[2] = [19F]FDT clearance and in vivo stability in marmosets (plasma LC-MS, 19F NMR); set-up: species or system common marmosets; settings: marmosets (n = 3), LC-MS and 19F-NMR
Procedure: In order to determine [^19F]FDT metabolism in vivo, we assessed concentration vs time in two mammalian species: common marmosets and C57BL/6 mice. For marmosets weighing between 290.3–340.3 g, 20 mg of sterile-filtered FDT in PBS was injected IV (n = 3) and ~200 μL blood samples were taken from the femoral vein at 0 min, 5 min, 30 min, 60 min, 90 min and 180 min post injection. Samples were spun (4000 rcf for 10 mins at room temp) to separate red cell mass from plasma. Plasma portion was separated and stored at −80 °C for further analysis. Similarly, mice weighing from 18.7–20.5 g were injected (n = 5) with 5 mg of filter-sterilized FDT solution dissolved in PBS solution, pH 7.4. Mandibular blood samples were taken at 2 min, 15 min, 30 min and 45 min post injection. For the last sample in each mouse, the animal was bled out to get maximum sample for NMR analysis. Final urine samples were collected in 3 out of 5 mice through free catch. Blood samples were centrifuged (6500 rcf for 4 mins at room temp) to separate red cell mass from plasma, and plasma was separated and stored at −80 °C prior to analyzes.
Plasma samples from −80 °C were thawed on ice and mixed with 80% acetonitrile to precipitate plasma proteins and other biomolecules. Samples were centrifuged at 10,000 g, 4 °C for 10 min.
Figure S37. [19F]FDT Clearance and In Vivo Stability in Non-human Primates […]
(§1) A, B) 20 mg [19F]FDT was injected into marmosets (A, n=3 biological replicates, each measured in duplicate) and 5 mg FDT injected into mice (B, n=5 biological replicates, each measured in triplicate). […]
marmosets (A) and mice (B).
[19F]FDG was detected, consistent with the only low levels of metabolism seen with [18F]FDT in rabbits (see Figure S3G). C-F) We further analyzed the potential degradation of FDT into FDG by 19F NMR spectroscopy in marmoset plasma (C) sample from 5 min time point, mouse plasma (D) sample from 30 min time point and mouse urine samples from 30 min (E) and 45 min (F) time points, respectively. In all these samples only [19F]FDT was observed (d -201.2). The data points are average values from three replicates with error bars ± SD.
(1 picture or pasted object on this page, not shown here)

[3] = [19F]FDT in vivo stability in mice (plasma/urine LC-MS, 19F NMR); settings: mice (n = 5), LC-MS and 19F-NMR
Procedure: For initial in vivo study, six white mice, CD1, male, weighing between 22–26 grams, were used. Two concentrations of [^19F]FDT (500 μM and 50 μM, final concentration in the blood) were injected into the mice, through the tail vein injection. Prior to injection, each mouse was pre-bled (100 μL) and control samples were obtained. […] Samples were spun at 13000 rpm (15871 x g) for 10 min and the supernatant (plasma) was used for further analysis. 200 μL of plasma sample was transferred into fresh 1.5 mL Eppendorf tube and diluted with equal amount of acetonitrile to precipitate out blood plasma protein and other macromolecules. Samples were further spun at 13000 rpm (15871 x g) for 5 min.
In order to determine [^19F]FDT metabolism in vivo, we assessed concentration vs time in two mammalian species: common marmosets and C57BL/6 mice. For marmosets weighing between 290.3–340.3 g, 20 mg of sterile-filtered FDT in PBS was injected IV (n = 3) and ~200 μL blood samples were taken from the femoral vein at 0 min, 5 min, 30 min, 60 min, 90 min and 180 min post injection. […]
as §1
[19F]FDG was detected, consistent with the only low levels of metabolism seen with [18F]FDT in rabbits (see Figure S3G). […]

[4] = Human microsomal stability assay; settings: human liver microsomes, 3 µM, 80 min
Procedure: Microsomal stability assay was carried out as described previously. In brief, 10 x reduced nicotinamide adenine dinucleotide phosphate (NADPH)-regenerating system was freshly prepared by dissolving 37.2 mg glucose-6-phosphate (Sigma) in 1 mL of 100 mM potassium phosphate buffer, 39.8 mg nicotinamide adenine dinucleotide phosphate (NADP, Sigma) in 1 mL of potassium phosphate buffer, 11.5 U glucose-6-phosphate dehydrogenase (Thermo) in 1 mL of potassium phosphate buffer and 26.8 mg MgCl2.6H2O (Sigma) in 1 mL of distilled water. All these solutions were combined and kept on ice. […] After 5 min, 18 µL of NADPH-regenerating system was added to initiate reaction. Immediately after adding the NADPH regenerating system, 50 µL, 0 min time point sample was taken and quenched with equal volume of ice-cold methanol. Similarly further samples were taken at 10 min, 30 min, 60 min, 90 min and 120 min. Samples were centrifuged at 10,000 g at 4 °C for 10 min. […] After incubating the reaction mix at 37 °C for 5 min, 36 µL of NADPH regenerating system was added to initiate the reaction. 50 µL samples were taken at 0 min, 2.5 min, 5 min, 10 min, 20 min, 40 min and 80 min and reactions were quenched by adding equal amount of ice-cold acetonitrile and kept on ice.

[5] = Single and repeat iv dose toxicity study in rats; format: in vivo, Sprague Dawley rats
Procedure: For toxicity studies, 2 g of [^19F]-FDT was synthesized and tested for quality control as described above and in Figs.39 and shipped to a contract research organization. Toxicity studies were conducted by SRI International, Biosciences Division, Menlo Park, CA, USA in rats and dogs. The experimental design is described in Tables S10, S11, respectively.

OC[C@H]1O[C@H](O[C@H]2O[C@H](CO)[C@@H](O)[C@H](O)[C@H]2F)[C@H](O)[C@@H](O)[C@@H]1O [[^19F]FDT]
degradation by trehalase [1]: little or no degradation
degradation by trehalase (Figure S5, released glucose) ([1]; pH 5.7, 37 °C, 60 minutes): 0
degradation in plasma / in vivo [2]: no detectable degradation
degradation in plasma / in vivo ([2]; listed as [19F]FDT): no degradation
degradation in plasma / in vivo [3]: no detectable degradation
degradation in plasma / in vivo ([3]; listed as [19F]FDT): no degradation
% remaining [4]: > 50%
maximum tolerated dose (MTD) ([5]; Sprague Dawley rats, IV): not reached
adverse findings in any parameters measured ([5]; rats, 100 x or 1000 x expected human dose iv): no adverse findings
